“And” between values parts separate entries of the source, which are not always exact repeats. Identical values can stand only once.
What was measured:
[1] = cited from earlier work
[2] = ASTM B-117 static salt fog test of PVB wash primers, rated by ASTM D-1654; conditions: PVB wash primer; for B-117 Proc. A: ASTM D-1654 rating Procedure A; for B-117 Proc. B: ASTM D-1654 rating Procedure B
Experimental: (§1) The corrosion inhibiting performance of MnIII and MnIV pigments was evaluated by incorporating them into primer paint formulations. […] The wash primer is composed of a resin, an acid, a corrosion inhibiting pigment, powdered talc, and carbon lampblack. The acid content of this wash primer provides a rigorous initial test of the stability and performance of the pigments. Other, more benign, polymer-based binder and resin systems might not separate the compounds based on their performance as effectively or as rapidly. […] PVB was used exclusively throughout testing to avoid preparation and compositional complications during analysis of pigment performance. However, the invention is not limited to the use of PVB. […] A small amount (0.2 g) of powdered talc (magnesium silicate) “filler” was added. Lampblack was not added to these samples. These components were mixed thoroughly by hand and 3.8 g of phosphoric acid diluent added with further mixing. This rough processing allowed direct comparisons of pigment performance to be made without complications due to powder treatments, modifications, and additives. […] This is not the conventional paint application procedure for aluminum alloys. Under normal service conditions, aluminum alloys are first subjected to a hexavalent chromium-containing conversion coating prior to primer application. However, the conversion coating was omitted so that the performance of the pigment alone could be evaluated and not the synergistic effects of hexavalent chromium (in the conversion coating) or even of barrier films (in the phosphate or anodized coatings). […] This accelerated corrosion test exposes samples to a constant salt-water fog and is a de facto test of solubility for corrosion inhibitors. […] This accelerated corrosion test exposes samples to a cycle of fog of dilute salt and ammonium sulfate at room temperature followed by forced-air drying at an elevated temperature. This is a more realistic test of the ability of a compound to inhibit corrosion. […] After the paint dried for 24 hours, each plate was scribed with an X and the plate edges were sealed with PVC tape to eliminate corrosion edge effects. Two visual observations are associated with this rating test. Procedure A involves a rating of the failure at the scribe-the representative […] of corrosion away from the scribe. […] In this way, not only the bulk corrosion-inhibiting action of a pigment through the binder can be rated, but also its “throwing power”.

[3] = ASTM G-85.5 cyclic Prohesion test of PVB wash primers, rated by ASTM D-1654; conditions: PVB wash primer; for G-85 Proc. A: ASTM D-1654 rating Procedure A; for G-85 Proc. B: ASTM D-1654 rating Procedure B
Experimental: as §1

[4] = 7.44 × 10^−4 M (10% of Cr), 117 hours, 2024-T3 (alloy taken from column order of Table 7)
[5] = 7.44 × 10^−4 M (10% of Cr), 117 hours, 7075-T6 (alloy taken from column order of Table 7)
[6] = 7.44 × 10^−4 M (10% of Cr), 139 hours, 2024-T3 (alloy taken from column order of Table 7)
[7] = 7.44 × 10^−4 M (10% of Cr), 139 hours, 7075-T6 (alloy taken from column order of Table 7)
[8] = 1.49 × 10^−3 M (20% of Cr), 144 hours, 2024-T3 (alloy taken from column order of Table 7)
[9] = 1.49 × 10^−3 M (20% of Cr), 144 hours, 7075-T6 (alloy taken from column order of Table 7)

| Compound | B-117 Proc. A [2, 4] | B-117 Proc. A [2, 5] | G-85 Proc. A [3, 4] | G-85 Proc. A [3, 5] | G-85 Proc. B [3, 4] | G-85 Proc. B [3, 5] | B-117 Proc. A [2, 6] | B-117 Proc. A [2, 7] | B-117 Proc. B [2, 6] | B-117 Proc. B [2, 7] | G-85 Proc. A [3, 6] | G-85 Proc. A [3, 7] | G-85 Proc. B [3, 6] | G-85 Proc. B [3, 7] | other results |
| --- | --- | --- | --- | --- | --- | --- | --- | --- | --- | --- | --- | --- | --- | --- | --- |
| [O]=[Cr](=[O])([O-])[O-].[O]=[Pb].[Pb+2] [basic lead chromate] |  |  |  |  |  |  |  |  |  |  |  |  |  |  | solubility in water relative to lead chromate [1]: slightly lower solubility in water |
| [O]1[Pb][O][Pb]12[O][Pb][O]2 [red lead] |  |  |  |  |  |  |  |  |  |  |  |  |  |  | PbVI solubility ([1]; Glasstone, J. Chem. Soc. 121: 1456-69, 1922): 10^−17 moles/liter Pb^+4 |
| barium 9-molybdomanganate | 4 | 3 | 7 | 8 and 7 | 6 | 7 and 6 |  |  |  |  |  |  |  |  |  |
| barium 13-vanadatomanganate |  |  |  |  |  |  | 7 | 7 | 8 and 7 | 6 | 6 and 7 | 6 | 6 | 5 |  |
| barium hexaiodatomanganate |  |  |  |  |  |  |  |  |  |  |  |  |  |  | B-117 Proc. A [2, 8]: 5; B-117 Proc. A [2, 9]: 5; B-117 Proc. B [2, 8]: 3; B-117 Proc. B [2, 9]: 3; G-85 Proc. A [3, 8]: 7 and 8; G-85 Proc. A [3, 9]: 8 and 7; G-85 Proc. B [3, 8]: 7 and 8; G-85 Proc. B [3, 9]: 8 and 7 |
| calcium 9-molybdomanganate | 6 | 5 | 6 | 7 | 5 | 6 |  |  |  |  |  |  |  |  | B-117 Proc. B [2, 4]: 3; B-117 Proc. B [2, 5]: 4 |
| calcium 13-vanadatomanganate |  |  |  |  |  |  | 8 | 7 | 7 | 6 | 7 | 7 | 6 | 6 |  |
| magnesium 13-vanadatomanganate |  |  |  |  |  |  | 9 | 7 | 7 | 8 | 7 | 6 and 7 | 6 | 5 and 6 |  |
| strontium 9-molybdomanganate | 5 | 4 and 5 | 6 | 6 | 5 | 5 |  |  |  |  |  |  |  |  |  |
| strontium 13-vanadatomanganate |  |  |  |  |  |  | 7 | 7 | 6 | 6 | 6 | 6 | 5 and 6 | 5 and 6 |  |
| zinc 9-molybdomanganate | 5 | 5 | 7 | 7 and 8 | 7 and 6 | 7 |  |  |  |  |  |  |  |  | B-117 Proc. B [2, 4]: 3; B-117 Proc. B [2, 5]: 4 and 3 |
| zinc 13-vanadatomanganate |  |  |  |  |  |  | 8 | 7 | 9 | 8 | 7 | 7 and 6 | 6 and 5 | 6 and 5 |  |
